Laboratory results published in paper PMC4683533, “Discovery of novel INK4C small-molecule inhibitors to promote human and murine hematopoietic stem cell ex vivo expansion” (Scientific Reports, 2015).

How the values were obtained:
[1] = test system: c-Kit-enriched BM cells (progenitor cells, HSPCs, LT-HSCs); experiment: CFSE cell division assay; format: cell-based, mouse; details: LT-HSC
Description: We have previously shown that deficiency of p18 may enhance HSCs expansion by inducing primitive phenotypes after each cell division in vivo[19]. To obtain direct evidence that compound 40 promotes primitive phenotypes after each cell division, we measured cell divisions in distinct immunophenotypically-defined populations of cells treated with p18SMI compound. 5- (and 6-) carboxy-fluorescein diacetatesuccinimidylester (CFSE) dye was used to label the c-Kit-enriched BM cells before culture. Surface markers for progenitor cells, HSPCs and LT-HSCs were used to co-stain the BM cells that were harvested 5 days after treatment with the p18SMI compound. The number of initial cell divisions was measured based on the intensity of CFSE in each cell population. Consistent with previous phenotype results, little effect on the progenitor cells and HSPCs populations was observed (Fig. 5A).
Prior to culture, cKit-enriched BM cells (1 × 10^6/mL) were labeled with 5- (and 6-) carboxy-fluorescein diacetatesuccinimidylester (CFSE) dye (3 μM, Molecular Probes) in PBS supplemented with 0.1% bovine serum albumin. Labeling was performed in the dark at 37 °C for 10 min. […] During cell division, CFSE is distributed equally between daughter cells so that the generation of cells could be reflected by the content of CFSE and measured by the intensity of fluorescence. […]

MM.1S = experiment: MTT proliferation assay on myeloma cell line; format: cell-based
Description: With confirmation of compound 40 promoting the expansion of HSCs, we further examined whether it might also increase the risk of malignant diseases. In order to determine the effect of compound 40 on hematological tumorigenesis, proliferation of both leukemia cell lines (KG-1 and KG-1a) and myeloma cell lines (MM.1S and RPMI 8226) was further investigated by a standard MTT assay.
To evaluate the toxicity of our top compounds, we performed a cell proliferation assay using 32D cells as well as leukemia cell lines and myeloma cell lines. Weihi-3 cells were cultured at 37 °C under 5% CO2 in RPMI 1640 medium supplemented with 10%FBS. After 48 h, the supernatant was collected and filtered. 32D cells were cultured in RPMI 1640 with 10% FBS and 10% supernatant collected from Weihi-3 cells. 8,000 32D cells or leukemia cell line (KG-1 or KG-1a) or myeloma cell line (MM.1S or RPMI 8226) were plated in a 96-well plate in 198 μL culture media per well, and then cultured (37 °C, 5% CO2) overnight. 2 μL of serially diluted compounds dissolved in saline or DMSO were added to each well and incubated (37 °C, 5% CO2) for 72 h. The concentration of DMSO was equal to the one in corresponding compound group. 20 μL of MTT solution was added to each well and then incubated (37 °C, 5% CO2) for 4 h. The percentage of cell survival was determined using the MTT assay, as previously described. The data was analyzed using GraphPad Prism v6.0.
(1 picture or pasted object on this page, not shown here)

[2] = test system: LT-repopulating HSCs (CD34-LKS cells); experiment: competitive bone marrow transplantation (cBMT) assay; format: in vivo, mouse
Method: Figure 3 Treatment of c-Kit-enriched murine BM cells with p18SMI compounds enhances HSC expansion. (A) The average number of total cells, HSPCs (Lin^−Sca1^+) and long term (LT)-HSCs (Lin^-Sca1^+CD48^−CD150^+) were analyzed by flow cytometry. (B) Single CD34^−LKS cell were deposited into each well of a 96-well plate, along with differentiation medium plus different concentrations of p18SMI compounds to show the dose-response effect of p18SMI compounds. (C) CAFC-LDA assay of cells treated with XIE18-6, compound 40 and DMSO to reveal the frequency of primitive HSCs. Above data (A–C) is mean ± SEM for all experiments of two or more and were performed in duplicate or triplicate. (D) Experimental design for transplantation (n = 10). CD34^-LKS cells were sorted into 96-well plates at 50 cells/well and cultured for 3 days with cytokine plus 20 μM of compounds or DMSO. Cells from each well were mixed with 2 × 10^6 freshly isolated bone marrow MNCs and co-transplanted by tail-vein injection into lethally irradiated CD45.2 recipient mice. 16 weeks after transplantation, bone marrow MNCs were stained to determine the engraftment level of donor cells. Bone marrow MNCs were also stained for lineage analysis. Multi-lineage differentiation was examined by flow cytometry. GM, T and B indicate lineages for myeloid, T and B cells, respectively. (E,F) The engraftment levels at 16 weeks after primary transplantation, and multi-lineage differentiation profile. Data is mean ± SEM for all experiments (***p < 0.001, **p < 0.01). TEXT PRINTED IN THE PICTURE: (E) #40: Engrafment%: *** 5.93X | (E) XIE18-6: Engrafment%: ** 3.01X DOUBTS OF THE COPYIST ABOUT THIS PICTURE: Panel E: 5.93X and 3.01X are printed on brackets running from #40 and from XIE18-6 to DMSO. No measure is printed beside them, so the axis label 'Engrafment%' was used as the measure.
The increased frequency and total number of functional LT-HSCs after treatment with p18SMI compounds was further confirmed by competitive bone marrow transplantation (cBMT) assay (Fig. 3D). CD34^-LKS cells were first sorted and cultured w/o p18SMI compound for 3 days. Then the cultured cells were gathered and co-transplanted into lethally irradiated mice with competitor cells. […] Moreover, the engraftment of the group treated with compound 40 was double of that of the group treated with XIE18–6.

O=C([O-])c1ccc(S(=O)(=O)NC2CCCCC2)cc1.[Na+] [Compound 40, sodium 4-(N-cyclohexylsulfamoyl)benzoate]
% Divided [1]: 65.2% | enhancement of proliferation (MTT) (MM.1S; 5 μM): did not enhance | effect on myeloma cell line (MM.1S; high concentration (20 μM)): no effect | engraftment relative to the group treated with XIE18–6 ([2]; 16 weeks after transplantation): double | multi-lineage differentiation profile (GM, T, B) compared with the control group ([2]; 16 weeks after transplantation): did not cause predominant growth of any specific lineages | increase in engraftment compared with the DMSO control group ([2]; CD34-LKS cells cultured 3 days with 20 μM compound, co-transplanted with competitor cells into lethally irradiated mice, bone marrow 16 weeks after transplantation): 5.93 fold | increase in engraftment compared with the uncultured group ([2]; cells cultured 3 days with 20 μM compound, 16 weeks after transplantation): 4.34 fold
